Source: patent US20250120420A1, “FEED ADDITIVE FOR IMPROVING ANIMAL PERFORMANCE, DIGESTION AND INTESTINAL HEALTH AND RELATED METHODS” (priority 2023, published 2025)
Marks after values point to notes of the source that are not given here.

Assays:
[1] = tested on: broilers; assay: Broiler trial, xylanase/COS dose response, 35 days, zootechnical performance; type: in vivo
Protocol: The researchers performed a study in growing poultry, in which xylanase and COS were combined in a dose response study in order to study the impact of combining xylanase and COS on poultry growth.
Materials and Methods: The effects of dietary supplementation of a combination of xylanase/COS were evaluated in a broiler trial over a duration of 35 days. A total of 1200 Ross broilers were used in this experiment, with five diets and 12 replicates per diet.

[2] = tested on: laying hens; assay: Laying hen trial, two-by-two factorial xylanase / COS, 60 days; type: in vivo, HiSex laying hens
Protocol: The researchers combined xylanase and COS in a two-by-two factorial design study in order to investigate the impact of combining xylanase and COS on animal intestinal health, and specifically the microbiome. Materials and Methods: The effects of dietary supplementation of a combination of xylanase/COS (prototype or “[…]”) were evaluated in a laying hen trial over a duration of 60 days. A total of 40 HiSex laying hens were used in this experiment, with four diets and 10 replicates per diet. Dosages were determined based on extrapolation of the in vitro cell culture data. Laying hens were allocated into four different groups: (T1) Control; […] (T3) xylanase alone, using […] Industries, Inc.); (T4) and a combination of xylanase and COS. The diets were based on wheat ( 55%), soybean and sunflower meal.

[3] = Grower phase, 15-35 days of age
[4] = Starter phase, 0-14 days of age

beta 1-4, endo-xylanase enzyme [Xygest HT]
ADFI ([1]; Global trial, 0-35 days of age): 87.2 g/day | FCR ([1]; Global trial, 0-35 days of age): 1.51^ab | M-ADFI (mortality adjusted mean daily feed intake) ([1]; Global trial, 0-35 days of age): 86.8 g/day | M-ADG (mortality adjusted mean daily gain) ([1]; Global trial, 0-35 days of age): 57.5^a g/d | M-FCR (Mortality adjusted feed:gain) ([1]; Global trial, 0-35 days of age): 1.51^ab | ADFI [1, 3]: 123.7 g/day | ADG [1, 3]: 80.0^a g/d | FCR [1, 3]: 1.55^ab | M-ADFI (mortality adjusted mean daily feed intake) [1, 3]: 123.3 g/day | M-ADG (mortality adjusted mean daily gain) [1, 3]: 79.9^a g/d | M-FCR (Mortality adjusted feed:gain) [1, 3]: 1.54^ab | ADFI [1, 4]: 32.9 g/day | ADG [1, 4]: 24.5 g/day | FCR [1, 4]: 1.35 | M-ADFI (mortality adjusted mean daily feed intake) [1, 4]: 32.8 g/day | M-ADG (mortality adjusted mean daily gain) [1, 4]: 24.4 g/day | M-FCR (Mortality adjusted feed:gain) [1, 4]: 1.34^ab | Body weight ([1]; broilers, 14 days of age): 386 g | Albumin Height ([2]; End of Phase 1): 7.1 a mm | Egg Shell Thickness ([2]; End of Phase 1): 0.397 a mm | Haugh Unit (HU) ([2]; End of Phase 1): 84.3 a | Shell Breaking Strength ([2]; End of Phase 1): 4.6 a kg · force | Yolk Color Score (DSM method) ([2]; End of Phase 1): 5.3 a | Yolk Diameter ([2]; End of Phase 1): 43.2 mm | Yolk Height ([2]; End of Phase 1): 18.7 mm | Yolk Index ([2]; End of Phase 1): 0.44 | Albumin Height ([2]; End of Phase 2): 7.9 a mm | Egg Shell Thickness ([2]; End of Phase 2): 0.428 a mm | Haugh Unit (HU) ([2]; End of Phase 2): 88.7 a | Shell Breaking Strength ([2]; End of Phase 2): 4.7 ab kg · force | Yolk Color Score (DSM method) ([2]; End of Phase 2): 6.7 a | Yolk Diameter ([2]; End of Phase 2): 44.2 mm | Yolk Height ([2]; End of Phase 2): 18.3 ab mm | Yolk Index ([2]; End of Phase 2): 0.42 a | Egg mass, % Improvement compared to the control treatment ([2]; laying hens, 60 days): 0.91% | Egg weight, % Improvement compared to the control treatment ([2]; laying hens, 60 days): 0.58% | FCR, % Improvement compared to the control treatment ([2]; laying hens, 60 days): −0.07% | laying percentage compared to the control group (in words) ([2]; laying hens, 60 days): significant increase | nutrient digestibility (in words, FIG. 6-11) ([2]; laying hens, 60 days): Even a better effect
